Reference: patent publication US10485895B2, “Self-assembling peptide scaffolds” (CELLULAR AND MOLECULAR RESEARCH CENTER, IRAN UNIVERSITY OF …, priority 2016, dated 2019)

System: Mg-63 cells
Assay: LDH cytotoxicity assay (LDH release as marker of dead cells)
Assay type: cell-based
Settings: control group = 100%, aloe vera extract 5% (v/v), SDKP about 75 micrograms per milliliter, Fingolimod hydrochloride about 10 nanogram per milliliter, FIG. 3
Description: In some cases, lactate dehydrogenase (LDH) assays can be performed by assessing or measuring the LDH released into the media as a marker of dead cells. In this example, biocompatibility and cytotoxicity of the injectable scaffold of the present disclosure as a whole and its components were measured by an LDH cytotoxicity assay as follows.
Mg-63 cell line was the source of osteoblast cells in the following assays. Six test groups and one control group of Mg-63 cells were prepared for investigating the cytotoxicity effects of the present injectable scaffold and its components. FIG. 3 illustrates the data of LDH release from Mg-63 cells of six test groups and one control group. […]

C[C@H](NC(=O)[C@H](CC(=O)O)NC(=O)[C@H](C)NC(=O)[C@H](CCCNC(=N)N)NC(=O)[C@H](C)NC(=O)[C@H](CC(=O)O)NC(=O)[C@H](C)NC(=O)[C@H](CCCNC(=N)N)NC(=O)[C@H](C)NC(=O)[C@H](CC(=O)O)NC(=O)[C@H](C)NC(=O)[C@H](CCCNC(=N)N)NC(=O)[C@H](C)NC(=O)[C@H](CC(=O)O)NC(=O)[C@H](C)NC(=O)[C@@H](N)CCCNC(=N)N)C(=O)O [R]
LDH release: about 62.35%
